The values that follow come from ChEMBL document CHEMBL2424616, “Synthesis and antimicrobial activity of novel 5-(1-adamantyl)-2-aminomethyl-4-substituted-1,2,4-triazoline-3-thiones” (2013).

Holding throughout (type): functional
In one test the test system is Bacillus subtilis. Nature of the test: Antibacterial activity against Bacillus subtilis IFO 3007 assessed as growth inhibition at 200 ug/disc after 24 hrs by agar disc-diffusion method. The conditions noted are these: IFO 3007, 24 h, read-out: DIZ. (In agar diffusion tests the substance spreads into inoculated agar from a disc or well.)
The next test concerns Candida albicans. Description: Antifungal activity against Candida albicans IFO 0583 assessed as growth inhibition at 200 ug/disc after 48 hrs by agar disc-diffusion method. The conditions noted are these: IFO 0583, 48 h, read-out: DIZ.
A further test deals with Staphylococcus aureus. Nature of the test: Antibacterial activity against Staphylococcus aureus IFO 3060 assessed as growth inhibition at 200 ug/disc after 24 hrs by agar disc-diffusion method. The conditions noted are these: IFO 3060, 24 h, read-out: DIZ.
In a further test the test system is Micrococcus luteus. Description: Antibacterial activity against Micrococcus luteus IFO 3232 assessed as growth inhibition at 200 ug/disc after 24 hrs by agar disc-diffusion method. The following applies: IFO 3232, 24 h, read-out: DIZ.
The test system of a further test is Escherichia coli. Nature of the test: Antibacterial activity against Escherichia coli IFO 3301 assessed as growth inhibition at 200 ug/disc after 24 hrs by agar disc-diffusion method. The conditions noted are these: IFO 3301, 24 h, read-out: DIZ.
The next test deals with Pseudomonas aeruginosa. Description: Antibacterial activity against Pseudomonas aeruginosa IFO 3448 assessed as growth inhibition at 200 ug/disc after 24 hrs by agar disc-diffusion method. The conditions noted are these: IFO 3448, 24 h, read-out: DIZ.

The structures appear in SMILES notation.

Take `FC(F)(F)c1cccc(NCn2nc(C34CC5CC(CC(C5)C3)C4)n(-c3ccc(Cl)cc3)c2=S)c1`: the zone of inhibition at 200 µg/disc in the test on Bacillus subtilis is 16 mm; in the test with Candida albicans, less than 10 mm; in the test with Staphylococcus aureus it was 16 mm; in the test on Micrococcus luteus, 17 mm; with Escherichia coli it was less than 10 mm; with Pseudomonas aeruginosa, less than 10 mm.

On to `S=c1n(CNc2ccc(Br)cc2)nc(C23CC4CC(CC(C4)C2)C3)n1-c1ccc(Cl)cc1`, for which the zone of inhibition at 200 µg/disc in the test with Bacillus subtilis, in the test on Candida albicans, in the test with Staphylococcus aureus, in the test with Micrococcus luteus, in the test on Escherichia coli and in the test with Pseudomonas aeruginosa was less than 10 mm in each case.

As for `Fc1ccc(NCn2nc(C34CC5CC(CC(C5)C3)C4)n(-c3ccc(Cl)cc3)c2=S)cc1`, the zone of inhibition at 200 µg/disc is 16 mm with Bacillus subtilis; less than 10 mm with Candida albicans; 14 mm in the test on Staphylococcus aureus; 12 mm with Micrococcus luteus; less than 10 mm in the test on Escherichia coli; less than 10 mm in the test on Pseudomonas aeruginosa.

Turning to `S=c1n(CN2CCN(Cc3ccccc3)CC2)nc(C23CC4CC(CC(C4)C2)C3)n1-c1ccc(Cl)cc1`, the zone of inhibition at 200 µg/disc with Bacillus subtilis was 12 mm; in the test on Candida albicans, less than 10 mm; in the test with Staphylococcus aureus, 11 mm; with Micrococcus luteus it was 11 mm; in the test with Escherichia coli, less than 10 mm; with Pseudomonas aeruginosa, less than 10 mm.

As to `Cn1c(C23CC4CC(CC(C4)C2)C3)nn(CNc2ccccc2)c1=S`, the zone of inhibition at 200 µg/disc is 12 mm with Bacillus subtilis; less than 10 mm with Candida albicans; less than 10 mm with Staphylococcus aureus; less than 10 mm in the test on Micrococcus luteus; less than 10 mm in the test on Escherichia coli; less than 10 mm in the test on Pseudomonas aeruginosa.

On to `CCOc1ccc(NCn2nc(C34CC5CC(CC(C5)C3)C4)n(-c3ccc(Cl)cc3)c2=S)cc1`, for which the zone of inhibition at 200 µg/disc in the test on Bacillus subtilis, in the test on Candida albicans, in the test on Staphylococcus aureus, in the test on Micrococcus luteus, with Escherichia coli and in the test with Pseudomonas aeruginosa was less than 10 mm throughout.

Take `S=c1n(CNc2cc(Cl)cc(Cl)c2)nc(C23CC4CC(CC(C4)C2)C3)n1-c1ccc(Cl)cc1`: the zone of inhibition at 200 µg/disc in the test on Bacillus subtilis was 13 mm; with Candida albicans it was less than 10 mm; in the test on Staphylococcus aureus, 12 mm; in the test with Micrococcus luteus it was 11 mm; in the test on Escherichia coli, less than 10 mm; in the test on Pseudomonas aeruginosa, less than 10 mm.

On to `Fc1ccccc1NCn1nc(C23CC4CC(CC(C4)C2)C3)n(-c2ccc(Cl)cc2)c1=S`, for which the zone of inhibition at 200 µg/disc is 12 mm with Bacillus subtilis; less than 10 mm in the test on Candida albicans; 11 mm in the test with Staphylococcus aureus; 12 mm with Micrococcus luteus; less than 10 mm in the test on Escherichia coli; less than 10 mm in the test on Pseudomonas aeruginosa.

Regarding `CCOc1ccc(NCn2nc(C34CC5CC(CC(C5)C3)C4)n(C)c2=S)cc1`, the zone of inhibition at 200 µg/disc in the test on Bacillus subtilis, in the test with Candida albicans, with Staphylococcus aureus, in the test with Micrococcus luteus, in the test with Escherichia coli and with Pseudomonas aeruginosa was less than 10 mm in each case.

`Cn1c(C23CC4CC(CC(C4)C2)C3)nn(CNc2ccc(F)cc2)c1=S`: the zone of inhibition at 200 µg/disc is 12 mm with Bacillus subtilis; less than 10 mm with Candida albicans; 12 mm in the test with Staphylococcus aureus; less than 10 mm with Micrococcus luteus; less than 10 mm with Escherichia coli; less than 10 mm in the test on Pseudomonas aeruginosa.
